In brackets after ≈: the same amount, converted by molar mass. Marks after values point to notes of the source that are not given here.
tested on: Houseflies (MD) (Musca domestica); experiment: not given; assay type: in vivo; conditions: topical 1 µl drop in acetone on female flies; kill assessed 24 and 48 hours
Description: Female flies were treated on the thorax with a one microlitre drop of test compound dissolved in acetone. Two replicates of 15 flies were used at each dose rate and 6 dose rates were used per compound under test. After treatment, the flies were maintained at a temperature of 20° ± 1°C and kill was assessed 24 and 48 hours after treatment. LD50 values were calculated in micrograms of test compound per fly (see Sawicki et al., Bulletin of the World Health Organisation, 35, 893 (1966) and Sawicki et al., Entomologia and Exp. Appli 10, 253, (1967).

| SMILES | MD (LD50) [µg/insect] |
| --- | --- |
| CCCCCC(C)(C)C1=C(O)C(=O)c2ccccc2C1=O [Example 18] | 13 |

tested on: Mites (TU) (Tetranychus urticae), susceptible strain (GSS); experiment: Mite immersion test, susceptible strain GSS; assay type: in vivo; conditions: 72 h, Tables 10, 13, 14, susceptible strain, NA = lack of detectable activity, read-out: TU LC50 (ppm/insect)
Description: 25 adult female mites were immersed in 35 µl of a solution of the test compound in a 1:4 acetone-water mixture for 30 seconds. The treated insects were maintained at 21° ± 2°C and kill was assessed 72 hours after treatment. […] Three replicates of 25 mites each were used at each dose rate and 5 or 6 dose rates were used per compound under test. LC50 values were calculated in ppm of the solution of the test compound per insect. The test was carried out using a susceptible strain of mites (GSS) supplied by Schering, AG, Berlin.

| SMILES | LC50 [µg/mL] |
| --- | --- |
| CCCC1=C(O)C(=O)c2ccccc2C1=O [-(CH2)2CH3, reference compound] | ~1000 (≈ 4620 µM) |
| CCCCCC1=C(O)C(=O)c2ccccc2C1=O [-(CH2)4CH3, reference compound] | 16 (≈ 65.5 µM) |
| CCCCCCCCCCC1=C(O)C(=O)c2ccccc2C1=O [-(CH2)9CH3, reference compound] | 5.5 (≈ 17.5 µM) |
| CCCCCCCCCCCC1=C(O)C(=O)c2ccccc2C1=O [-(CH2)10CH3, reference compound] | 1.4 (≈ 4.26 µM) |
| CCCCCCCCCCCCC1=C(O)C(=O)c2ccccc2C1=O [-(CH2)11CH3, reference compound] | < 60 |
| CCCCCCCCCCCCCCC1=C(O)C(=O)c2ccccc2C1=O [-(CH2)13CH3, reference compound] | 1.3 (≈ 3.51 µM) |
| CC1(C2=C(O)C(=O)c3ccccc3C2=O)CCCC1 [Example 24, 2-hydroxy-3-(1'-methylcyclopentyl)-naphthalene-1,4-dione] | 48 (≈ 187 µM) |
| CC(C)(C)CCC1=C(O)C(=O)c2ccccc2C1=O [Example 36, 2-(3,3-dimethylbutyl)-3-hydroxy-naphthalene-1,4-dione] | 36 (≈ 139 µM) |
| CC(C)(C)CCCC1=C(O)C(=O)c2ccccc2C1=O [Example 37, 2-(4,4-dimethylpentyl)-3-hydroxy-naphthalene-1,4-dione] | 2.9 (≈ 10.6 µM) |
| CC(C)(C)C=CC1=C(O)C(=O)c2ccccc2C1=O [Example 42, 2-(3,3-dimethyl-but-1-enyl)-3-hydroxy-naphthalene-1,4-dione] | ~100 (≈ 390 µM) |
| CC(C)(C)C=CCCCC1=C(O)C(=O)c2ccccc2C1=O [Example 43, 2-(6,6-dimethylhep-4-enyl)-3-hydroxy-naphthalene-1,4-dione] | 11.5 (≈ 38.5 µM) |
| C=CC(C)(C)CCC1=C(O)C(=O)c2ccccc2C1=O [Example 50] | 6.5 (≈ 24 µM) |

same assay, conditions: 72 h, read-out: TU(GSS) (LC50)

| SMILES | LC50 [µg/mL] |
| --- | --- |
| C=CC(C)(C)C1=C(OC(=O)CF)C(=O)c2ccccc2C1=O [Example 9] | 140 (≈ 463 µM) |

same assay, conditions: ppm solution of test compound, 30 seconds immersion, kill at 72 hours, read-out: TU(GSS) (LC50)

| SMILES | LC50 [µg/mL] |
| --- | --- |
| C=CC(C)(C)C1=C(OC(=O)c2ccccc2)C(=O)c2ccccc2C1=O [Example 11] | ~50 (≈ 144 µM) |
| CCCCCC(C)(C)C1=C(O)C(=O)c2ccccc2C1=O [Example 18] | ~100 (≈ 349 µM) |

tested on: Myzus persicae, susceptible strain (US1L); experiment: Aphid dip test, susceptible strain; assay type: in vivo; conditions: read-out: MP % kill 100 ppm
Description: Activity against resistant (R) and susceptible (S) strains of aphid (Myzus persicae) was assessed using the following method.
Entrapment rings of fluon were painted halfway up the inside of 4 cm lengths of glass tubing (1.5 cm diameter), and squares of insect-proof gauze were attached to one end of each tube by elastic bands. Fifteen apterous adults were then gently transferred into the tubes using a sable-hair brush, and the tube sealed with a second gauze square.
Tubes containing aphids were dipped into insecticide solutions for 10 seconds, dried on blotting paper, and then inverted and tapped to cause treated aphids to fall to the unimmersed end of each tube. Handling mortality (usually zero or very slight) was scored after 1 hour, when aphids were transferred onto chinese cabbage leaf-discs (35 mm diameter) on an agar bed (25 mm in depth) in disposible plastic containers (30 mm high) and confined by applying a ring of fluon to the exposed lip of the container. Containers were store upright, without lids, in a constant environment facility maintained at 25°C under continuous room lighting. Mortality was assessed at 24, 48 and 72 hours. Two replicates of 15 aphids each were used at each dose rate and 5 or 6 dose rates were used per compound under test.
The test was carried out using a susceptible strain of aphids (US1L) collected in the field in East Anglia, UK and an extremely resistant strain of aphids (794Jz) (R3 esterase, sensitive AChE) collected from glasshouses in the UK.
The values given are % mortality corrected for control data. The control comprised the test solution without active ingredient.

| SMILES | mortality at 100 ppm [%] |
| --- | --- |
| CCCCCCCCCCCCC1=C(O)C(=O)c2ccccc2C1=O [-(CH2)11CH3, reference compound] | 0 |
| CC1(C2=C(O)C(=O)c3ccccc3C2=O)CCCC1 [Example 24, 2-hydroxy-3-(1'-methylcyclopentyl)-naphthalene-1,4-dione] | 44 |
| CC(C)(C)CCC1=C(O)C(=O)c2ccccc2C1=O [Example 36, 2-(3,3-dimethylbutyl)-3-hydroxy-naphthalene-1,4-dione] | ~24 |
| CC(C)(C)CCCC1=C(O)C(=O)c2ccccc2C1=O [Example 37, 2-(4,4-dimethylpentyl)-3-hydroxy-naphthalene-1,4-dione] | ~70 |
| CC(C)(C)C=CCCCC1=C(O)C(=O)c2ccccc2C1=O [Example 43, 2-(6,6-dimethylhep-4-enyl)-3-hydroxy-naphthalene-1,4-dione] | ~100 |

tested on: Mustard beetles (PC) (Phaedon cochleariae Fab); experiment: not given; assay type: in vivo; conditions: 1 µl acetone drop applied ventrally to adults; kill at 48 hours; NA = lack of detectable activity
Description: A one microlitre drop of an acetone solution of the test compound was applied ventrally to adult mustard beetles using a micro drop applicator. The treated insects were maintained for 48 hours after which time kill was assessed. Two replicates each of 20 to 25 mustard beetles were used at each dose level and 5 dose levels were treated comparably. LD50 values were calculated as for houseflies.

| SMILES | PC (LD50) |
| --- | --- |
| C=CC(C)(C)C1=C(OC(=O)CF)C(=O)c2ccccc2C1=O [Example 9] | 0.41 µg/insect |
| CCCCCC(C)(C)C1=C(O)C(=O)c2ccccc2C1=O [Example 18] | c. 15 µg/insect |

same assay, conditions: Tables 10, 13, 14; NA = lack of detectable activity

| SMILES | PC LD50 (µg/insect) |
| --- | --- |
| CCCC1=C(O)C(=O)c2ccccc2C1=O [-(CH2)2CH3, reference compound] | c10 µg/insect |
| CCCCCC1=C(O)C(=O)c2ccccc2C1=O [-(CH2)4CH3, reference compound] | c7 µg/insect |
| CCCCCCCCCCC1=C(O)C(=O)c2ccccc2C1=O [-(CH2)9CH3, reference compound] | 1.9 µg/insect |
| CCCCCCCCCCCC1=C(O)C(=O)c2ccccc2C1=O [-(CH2)10CH3, reference compound] | c0.4 µg/insect |
| CC(C)(C)CCC1=C(O)C(=O)c2ccccc2C1=O [Example 36, 2-(3,3-dimethylbutyl)-3-hydroxy-naphthalene-1,4-dione] | 1.3 µg/insect |
| CC(C)(C)C=CC1=C(O)C(=O)c2ccccc2C1=O [Example 42, 2-(3,3-dimethyl-but-1-enyl)-3-hydroxy-naphthalene-1,4-dione] | 3.6 µg/insect |

same assay, conditions: mustard beetle, in vivo, topical or ocular, 48 h

| SMILES | PC % Kill at 20 µg/insect [% *] |
| --- | --- |
| C=CC(C)(C)C1=C(O)C(=NOC)c2ccccc2C1=O [Example 15] | 35 |

tested on: Whitefly (BT) (Bemisia tabaci), susceptible strain (SUD-S); experiment: Whitefly residual film vial test, susceptible strain SUD-S; assay type: in vivo; conditions: 48 h, Tables 10, 13, 14, susceptible strain, NA = lack of detectable activity, read-out: BT LC50 (ppm/insect)
Description: Acetone solutions (0.100 ml) of the test compounds were placed in 10 ml glass vials and evaporated with rotation to deposit a film of the compound. Thirty adult whiteflies were placed inside the vial, then after 60 minutes, the treated insects were transferred onto untreated cotton leaf discs which were kept moist on a bed of agar gel. The temperature was maintained at 25°C and mortality assessed after 48 hours. Three replicates were used at each of 5 to 7 dose levels per compound.

| SMILES | LC50 [µg/mL] |
| --- | --- |
| CCCC1=C(O)C(=O)c2ccccc2C1=O [-(CH2)2CH3, reference compound] | 80 (≈ 370 µM) |
| CCCCCC1=C(O)C(=O)c2ccccc2C1=O [-(CH2)4CH3, reference compound] | 17 (≈ 69.6 µM) |
| CCCCCCCCCCC1=C(O)C(=O)c2ccccc2C1=O [-(CH2)9CH3, reference compound] | > 100 |
| CCCCCCCCCCCC1=C(O)C(=O)c2ccccc2C1=O [-(CH2)10CH3, reference compound] | > 100 |
| CCCCCCCCCCCCC1=C(O)C(=O)c2ccccc2C1=O [-(CH2)11CH3, reference compound] | > 100 |
| CC1(C2=C(O)C(=O)c3ccccc3C2=O)CCCC1 [Example 24, 2-hydroxy-3-(1'-methylcyclopentyl)-naphthalene-1,4-dione] | 33 (≈ 129 µM) |
| CC(C)(C)CCC1=C(O)C(=O)c2ccccc2C1=O [Example 36, 2-(3,3-dimethylbutyl)-3-hydroxy-naphthalene-1,4-dione] | ~7 (≈ 27.1 µM) |
| CC(C)(C)CCCC1=C(O)C(=O)c2ccccc2C1=O [Example 37, 2-(4,4-dimethylpentyl)-3-hydroxy-naphthalene-1,4-dione] | 16 (≈ 58.7 µM) |
| CC(C)(C)C=CC1=C(O)C(=O)c2ccccc2C1=O [Example 42, 2-(3,3-dimethyl-but-1-enyl)-3-hydroxy-naphthalene-1,4-dione] | 17 (≈ 66.3 µM) |
| CC(C)(C)C=CCCCC1=C(O)C(=O)c2ccccc2C1=O [Example 43, 2-(6,6-dimethylhep-4-enyl)-3-hydroxy-naphthalene-1,4-dione] | ~60 (≈ 201 µM) |
| C=CC(C)(C)CCC1=C(O)C(=O)c2ccccc2C1=O [Example 50] | 16 (≈ 59.2 µM) |

same assay, conditions: 48 h, read-out: BT(SUD-S) % Kill at 1000 ppm solution of test compound

| SMILES | mortality at 1000 ppm [%] |
| --- | --- |
| C=CC(C)(C)C1=C(O)C(=NOC)c2ccccc2C1=O [Example 15] | 97 |

same assay, conditions: 48 h, read-out: BT(SUD-S) (LC50)

| SMILES | LC50 [µg/mL] |
| --- | --- |
| C=CC(C)(C)C1=C(OC(=O)CF)C(=O)c2ccccc2C1=O [Example 9] | 13.4 (≈ 44.3 µM) |

same assay, conditions: ppm solution of test compound, 60 minutes film exposure, mortality after 48 hours, read-out: BT(SUD-S) (LC50)

| SMILES | LC50 [µg/mL] |
| --- | --- |
| CCCCCC(C)(C)C1=C(O)C(=O)c2ccccc2C1=O [Example 18] | 10 (≈ 34.9 µM) |

— EP0802730B1, “PESTICIDAL COMPOUNDS” (BTG INTERNATIONAL LIMITED, priority 1995, dated 1996)
